Assay results from patent publication US10689377B2 (Mirati Therapeutics, Inc., priority 2017, dated 2020).

Assays:
[1] = biological target: KRas G12C (Homo sapiens, UniProt P01116, C118S/C51S/C80L/G12C); assay: KRas G12C Modification Assay (LCMS detection of covalent adduct); assay type: binding
Description: A 10 μL aliquot of each protein solution was then transferred to a 384 well microtiter plate. Initial compound stocks were generated at fifty times their desired final assay concentration in DMSO.
Exemplary compounds of Formula (I) were diluted 25-fold into K-Ras Assay Buffer to a final of two times their final concentration. A 10 μL aliquot of each diluted compound solution was then added to each of the protein solutions in the microtiter plate to initiate reaction. […] At each time point, the reactions were quenched with 20 μL of a 25 mM acetic acid solution. […] Once all reactions were quenched, the plates were heat sealed and the samples were injected into a LC/MS system for data acquisition.
Samples were injected in their liquid phase onto a C-3 reverse phase column to remove assay buffer and prepare the samples for mass spectrometer. The proteins were eluted from the column using an acetonitrile gradient and fed directly into the mass analyzer. Initial raw data analysis took place in Agilent MassHunter software immediately post data acquisition.
Raw data analysis of the intact protein was exclusively a deconvolution of the multiple charge states of each protein in solution using a maximum entropy deconvolution provided in Mass Hunter. To minimize complexity, only the data over limited mass ranges were considered for analysis, with a minimum of one Dalton mass step intervals. The heights of all masses identified during raw data analysis were exported to be further analyzed in Spotfire® data analysis software.
Final data analysis was a multistep process in the Spotfire® data analysis software package. Briefly, each protein mass was calculated as a percent of the total signal of that sample, that percentage was then normalized to the percentage of signal of the protein in the absence of reactive compounds. Those normalized signals were reported as normalized percent of control (POC). […] Key: “A”≤25% POC; “B”>25% POC-≤50% POC; “C”>50% POC and ND=not determined.

[2] = biological target: KRas G12C (Homo sapiens, UniProt P01116, G12C); assay: Cellular inhibition of KRas G12C measured by Phospho-ERK in NCI-H358 cells; assay type: cell-based; details: pERK(Thr202/Tyr204) normalized with GAPDH, NCI-H358 cells, 3 hours; read-out: IC50
Outline: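 Ratio of phospho-ERK(Thr202/Tyr204) to GAPDH, read by near-infrared secondary antibodies on fixed, permeabilised NCI-H358 cells, expressed relative to DMSO control. Compound exposure was 3 h at 0.5% DMSO. IC50 values come from 4-parameter curve fits.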

[3] = normalized percent of control, 5 μM concentration for 3 hours

Compound | IC50 [2] | POC [1, 3] | POC ([1]; 5 µM)
C=CC(=O)N1CCN(c2nc(O[C@H](C)CN(C)CC)nc3c2CCN(c2cc(O)cc4ccccc24)C3)CC1 [Example 131, 1-[4-[2-[(1R)-2-[ethyl(methyl)amino]-1-methyl-ethoxy]-7-(3-hydroxy-1-naphthyl)-6,8-dihydro-5H-pyrido[3,4-d]pyrimidin-4-yl]piperazin-1-yl]prop-2-en-1-one] | 0.1 to 1000 nM | C (“C”>50% POC) | 
C=CC(=O)N1CCN(c2nc(OC[C@@H]3CCCN3C)nc3c2CCN(c2cccc4ccccc24)C3)CC1CC#N (stereo partly drawn) [Example 147, 2-[4-[2-[[(2S)-1-methylpyrrolidin-2-yl]methoxy]-7-(1-naphthyl)-6,8-dihydro-5H-pyrido[3,4-d]pyrimidin-4-yl]-1-prop-2-enoyl-piperazin-2-yl]acetonitrile] | 0.1 to 1000 nM | C (“C”>50% POC) | 
C=CC(=O)N1CCN(c2nc(OC[C@@H]3CCCN3C)nc3c2CCN(c2c(C)ccc4[nH]ncc24)C3)CC1CC#N (stereo partly drawn) [Example 148, 2-[4-[7-(5-methyl-1H-indazol-4-yl)-2-[[(2S)-1-methylpyrrolidin-2-yl]methoxy]-6,8-dihydro-5H-pyrido[3,4-d]pyrimidin-4-yl]-1-prop-2-enoyl-piperazin-2-yl]acetonitrile] | 0.1 to 1000 nM | C (“C”>50% POC) | 
C=CC(=O)N1CCN(c2nc(OC[C@@H]3CCCN3C)nc3c2CCN(c2c(C(F)(F)F)ccc4[nH]ncc24)C3)CC1CC#N (stereo partly drawn) [Example 149, 2-[4-[2-[[(2S)-1-methylpyrrolidin-2-yl]methoxy]-7-[5-(trifluoromethyl)-1H-indazol-4-yl]-6,8-dihydro-5H-pyrido[3,4-d]pyrimidin-4-yl]-1-prop-2-enoyl-piperazin-2-yl]acetonitrile] | 0.1 to 1000 nM | B (“B”>25% POC-≤50% POC) | 
C=CC(=O)N1CCN(c2nc(OC[C@@H]3CCCN3C)nc3c2CCN(c2c(C)ccc4[nH]ncc24)C3)CC1 [Example 155, (S)-1-(4-(7-(5-methyl-1H-indazol-4-yl)-2-((1-methylpyrrolidin-2-yl)methoxy)-5,6,7,8-tetrahydropyrido[3,4-d]pyrimidin-4-yl)piperazin-1-yl)prop-2-en-1-one] | 0.1 to 1000 nM |  | C (key: “A”≤25% POC; “B”>25% POC-≤50% POC; “C”>50% POC)
C=CC(=O)N1CCN(c2nc(OC[C@@H]3CCCN3C)nc3c2CCN(c2ccccc2C(C)C)C3)CC1 [Example 158, 1-[4-[7-(2-isopropylphenyl)-2-[[(2S)-1-methylpyrrolidin-2-yl]methoxy]-6,8-dihydro-5H-pyrido[3,4-d]pyrimidin-4-yl]piperazin-1-yl]prop-2-en-1-one] | > 1000 nM | C (“C”>50% POC) | 
C=CC(=O)N1CCN(c2nc(OCCCN3CCOCC3)nc3c2CCN(c2c(F)c(O)cc4ccccc24)C3)CC1 [Example 165, 1-[4-[7-(2-fluoro-3-hydroxy-1-naphthyl)-2-(3-morpholinopropoxy)-6,8-dihydro-5H-pyrido[3,4-d]pyrimidin-4-yl]piperazin-1-yl]prop-2-en-1-one] | > 1000 nM |  | C (key: “A”≤25% POC; “B”>25% POC-≤50% POC; “C”>50% POC)
C=CC(=O)N1CCN(c2nc(OCCCN3CCOCC3)nc3c2CCN(c2cc(O)cc4sc(C)nc24)C3)CC1 [Example 166, 1-[4-[7-(6-hydroxy-2-methyl-1,3-benzothiazol-4-yl)-2-(3-morpholinopropoxy)-6,8-dihydro-5H-pyrido[3,4-d]pyrimidin-4-yl]piperazin-1-yl]prop-2-en-1-one] | > 1000 nM |  | B (key: “A”≤25% POC; “B”>25% POC-≤50% POC; “C”>50% POC)
C=CC(=O)N1CCN(c2nc(OCCCN3CCOCC3)nc3c2CCN(c2cc(O)cc4cc(C)[nH]c24)C3)CC1 [Example 167, 1-(4-(7-(5-hydroxy-2-methyl-1H-indol-7-yl)-2-(3-morpholinopropoxy)-5,6,7,8-tetrahydropyrido[3,4-d]pyrimidin-4-yl)piperazin-1-yl)prop-2-en-1-one] | > 1000 nM | B (“B”>25% POC-≤50% POC) | 

More lines, main results first:

IC50 [2] | Compound | POC [1, 3] | POC ([1]; 5 µM)
0.1 to 1000 nM | C=C(F)C(=O)N1CCN(c2nc(OC[C@@H]3CCCN3C)nc3c2CCN(c2cncc4ccc(F)cc24)C3)C[C@@H]1CC#N [Example 609, 2-[(2S)-4-[7-(6-fluoro-4-isoquinolyl)-2-[[(2S)-1-methylpyrrolidin-2-yl]methoxy]-6,8-dihydro-5H-pyrido[3,4-d]pyrimidin-4-yl]-1-(2-fluoroprop-2-enoyl)piperazin-2-yl]acetonitrile] |  | 
> 1000 nM | C=C(F)C(=O)N1CCN(c2ncnc3c2CCN(c2cccc4ccccc24)C3)C[C@@H]1CC#N [Example 610, (S)-2-(1-(2-fluoroacryloyl)-4-(7-(naphthalen-1-yl)-5,6,7,8-tetrahydropyrido[3,4-d]pyrimidin-4-yl)piperazin-2-yl)acetonitrile] |  | 
> 1000 nM | C=C(F)C(=O)N1CCN(c2ncnc3c2CCN(c2cccc4cccc(C)c24)C3)C[C@@H]1CC#N [Example 611, (S)-2-(1-(2-fluoroacryloyl)-4-(7-(8-methylnaphthalen-1-yl)-5,6,7,8-tetrahydropyrido[3,4-d]pyrimidin-4-yl)piperazin-2-yl)acetonitrile] |  | 
> 1000 nM | C=C(F)C(=O)N1CCN(c2ncnc3c2CCN(c2cncc4cccc(Cl)c24)C3)C[C@@H]1CC#N [Example 612, (S)-2-(4-(7-(5-chloroisoquinolin-4-yl)-5,6,7,8-tetrahydropyrido[3,4-d]pyrimidin-4-yl)-1-(2-fluoroacryloyl)piperazin-2-yl)acetonitrile] |  | 
0.1 to 1000 nM | C=C(F)C(=O)N1CCN(c2nc(OC[C@@H]3CC(F)(F)CN3C)nc3c2CCN(c2c(C)c(C)cc4[nH]ncc24)C3)C[C@@H]1CC#N [Example 613, 2-((S)-4-(2-(((S)-4,4-difluoro-1-methylpyrrolidin-2-yl)methoxy)-7-(5,6-dimethyl-1H-indazol-4-yl)-5,6,7,8-tetrahydropyrido[3,4-d]pyrimidin-4-yl)-1-(2-fluoroacryloyl)piperazin-2-yl)acetonitrile] |  | 
0.1 to 1000 nM | Cc1cc2[nH]ncc2c(N2CCc3c(nc(OC[C@@H]4CC(F)(F)CN4C)nc3N3CCN(C(=O)/C=C/CF)[C@@H](CC#N)C3)C2)c1C [Example 614, 2-((S)-4-(2-(((S)-4,4-difluoro-1-methylpyrrolidin-2-yl)methoxy)-7-(5,6-dimethyl-1H-indazol-4-yl)-5,6,7,8-tetrahydropyrido[3,4-d]pyrimidin-4-yl)-1-((E)-4-fluorobut-2-enoyl)piperazin-2-yl)acetonitrile] |  | 
0.1 to 1000 nM | C=C(F)C(=O)N1CCN(c2nc(OC[C@@H]3CC(C)(C)CN3C)nc3c2CCN(c2cccc4cccc(C)c24)C3)C[C@@H]1CC#N [Example 615, 2-[(2S)-1-(2-fluoroprop-2-enoyl)-4-[7-(8-methyl-1-naphthyl)-2-[[(2S)-1,4,4-trimethylpyrrolidin-2-yl]methoxy]-6,8-dihydro-5H-pyrido[3,4-d]pyrimidin-4-yl]piperazin-2-yl]acetonitrile] |  | 
0.1 to 1000 nM | C=C(F)C(=O)N1CCN(c2nc(OC[C@@H]3C[C@H](C)CN3C)nc3c2CCN(c2cccc4cccc(C)c24)C3)C[C@@H]1CC#N [Example 616, 2-[(2S)-4-[2-[[(2S,4S)-1,4-dimethylpyrrolidin-2-yl]methoxy]-7-(8-methyl-1-naphthyl)-6,8-dihydro-5H-pyrido[3,4-d]pyrimidin-4-yl]-1-(2-fluoroprop-2-enoyl)piperazin-2-yl]acetonitrile] |  | 
> 1000 nM | C=C(F)C(=O)N1CCN(c2nc(OC[C@@H]3CCCN3C)nc3c2CCN(c2c(C)ncc4ccccc24)C3)C[C@@H]1CC#N [Example 617] |  | 
> 1000 nM | C=C(F)C(=O)N1CCN(c2nc(OC[C@@H]3CCCN3C)nc3c2CCN(c2cncc4cc(F)ccc24)C3)C[C@@H]1CC#N [Example 618, 2-[(2S)-4-[7-(7-fluoro-4-isoquinolyl)-2-[[(2S)-1-methylpyrrolidin-2-yl]methoxy]-6,8-dihydro-5H-pyrido[3,4-d]pyrimidin-4-yl]-1-(2-fluoroprop-2-enoyl)piperazin-2-yl]acetonitrile] |  | 
0.1 to 1000 nM | C=C(F)C(=O)N1CCN(c2nc(OC[C@@H]3CCCN3C)nc3c2CCN(c2cncc4cccc(C)c24)C3)C[C@@H]1CC#N [Example 619, 2-[(2S)-1-(2-fluoroprop-2-enoyl)-4-[7-(5-methyl-4-isoquinolyl)-2-[[(2S)-1-methylpyrrolidin-2-yl]methoxy]-6,8-dihydro-5H-pyrido[3,4-d]pyrimidin-4-yl]piperazin-2-yl]acetonitrile] |  | 
> 1000 nM | C=C(F)C(=O)N1CCN(c2nc(OC[C@@H]3CCCN3C)nc3c2CCN(c2cccc4cccc(Cl)c24)C3)[C@@H](C(F)F)C1 [Example 621, 1-[(3R)-4-[7-(8-chloro-1-naphthyl)-2-[[(2S)-1-methylpyrrolidin-2-yl]methoxy]-6,8-dihydro-5H-pyrido[3,4-d]pyrimidin-4-yl]-3-(difluoromethyl)piperazin-1-yl]-2-fluoro-prop-2-en-1-one] |  | 
